Laboratory results reported in patent US7026292B1, “Compositions and therapeutic methods using morphogenic proteins and stimulatory factors” (Stryker Corporation, priority 1995, dated 2006).

System: FRC (fetal rat calvarial) cells
Test: Alkaline phosphatase (AP) activity assay in FRC cells
Format: cell-based
Details: for MPSF function in concert with OP-1 (figure title): OP-1 200 ng/ml (FIGS. 5–10); for Stimulation of OP-1 osteogenic induction (figure title): OP-1 500 ng/ml (FIG. 1, FIG. 11)
Method: A preferred assay for testing potential MPSFs with OP-1 for osteogenic activity is the alkaline phosphatase (AP) enzymatic assay. AP is an osteoblast differentiation marker in primary osteoblastic FRC. (fetal rat calvarial) cells. The OP-1-stimulated AP activity is the result of increased steady-state AP mRNA levels as measured by Northern analysis. The procedure is generally as follows.
Primary osteoblast cell cultures were prepared from fetal rat calvaria using published procedures (M. A. Aronow et al., J. Cell Physiol., 143, pp. 213–221 (1990); T. K. McCarthy et al., J. Bone Miner. Res., 3, pp. 401–8 (1988)). Briefly, cells were harvested by sequential collagenase digestions of the calvarium and cells from digestions III to V were pooled. Fetal rat calvaria (FRC) cells were plated in complete medium (MEM, alpha; GIBCO/BRL, Grand Island, N.Y.) containing 10% fetal bovine serum, vitamin C (100 μg/ml), and antibiotics (100 U/ml penicillin, and […]). Cultures were incubated at 37° C. with 95% air/5% CO2 for several days to reach confluence. Cells were then subcultured for experimentations.
FRC cells were subcultured in 48-well plates (COSTAR, Cambridge, Mass.) in complete MEM medium with 10% fetal bovine serum until confluent in about 4 days. Confluent cells were rinsed with Hank's balanced salt solution (HBSS) and treated with serum-free α-MEM medium (with 0.1% BSA, 100 U/ml penicillin, and […]) containing the appropriate solvent vehicle (50% acetonitrile/0.1% trifluoroacetic acid for OP-1 treatment or 0.1N acetic acid for IGFI treatment) or recombinant human OP-1, or IGFI at the concentrations indicated. Solvent vehicle concentration in the culture medium never exceeded 0.1%. At the end of treatment, cells were lysed and total cellular alkaline phosphatase activity was measured (typically after 48 hours of treatment).
Total cellular alkaline phosphatase activity was determined using a commercial assay kit (Sigma, St. Louis, Mo.). Cell lysates were prepared by aspirating the medium from the 48-well plate, rinsing the cells with ice-cold PBS, and lysing the cells with 0.05% Triton X-100 and sonication for 60 sec. Alkaline phosphatase activity in the lysates was measured in 2-amino-2-methyl-1-propanol buffer (pH 10.3) with p-nitrophenyl phosphate as substrate at 37° C. Reactions were performed in 96-well plates for 1–2 h. Following color development, reactions were terminated with 0.5N NaOH. Absorbance of the reaction was measured at 405 nm using a Hewlett Packard Genenchem automatic plate reader. Total protein level in the lysates was measured according to Bradford (M. Bradford, Anal. Biochem., 72, pp. 248–54 (1976)) using bovine serum albumin as a standard. Alkaline phosphatase activity was expressed as nmol p-nitrophenol liberated per microgram of total cellular protein. […]
At least four experimental groups were tested: control cells treated with no OP-1 or MPSF; group I cells treated with increasing concentrations of MPSF alone; […]; and group III cells, […] concentrations of the MPSF.

[1] = 0.5 nM HC + 200 ng/ml OP-1, 48 hours (FIG. 7)
[2] = PG 5 nM + 200 ng/ml OP-1, 48 hours (FIG. 10)
[3] = IGF-I + OP-1 500 ng/ml (FIG. 1)
[4] = 0.05 nM or 0.5 nM insulin + 200 ng/ml OP-1, 48 hours (FIG. 8)

C[C@]12CCC(=O)C=C1CC[C@@H]1[C@@H]2[C@@H](O)C[C@@]2(C)[C@H]1CC[C@]2(O)C(=O)CO [HC, hydrocortisone, reference compound]
Level of AP activity relative to cells treated with OP-1 alone [1]: about two-fold
Level of AP activity relative to control cells [1]: about three-fold
MPSF function in concert with OP-1 (figure title) (AP activity in FRC cells): is a MPSF in concert with OP-1
Stimulation of AP activity by HC alone (HC 0.05–5 nM alone, 48 hours (FIG. 7)): did not stimulate AP activity

CC(=O)[C@H]1CC[C@H]2[C@@H]3CCC4=CC(=O)CC[C@]4(C)[C@H]3CC[C@]12C [PG, progesterone, reference compound]
MPSF function in concert with OP-1 (figure title) (AP activity in FRC cells): is a MPSF in concert with OP-1
Level of AP activity relative to cells treated with OP-1 alone [2]: about two-fold
Level of AP activity relative to control cells [2]: about four-fold
Stimulation of AP activity beyond control cells (PG alone 5 nM, 48 hours (FIG. 10)): about three-fold

IGF-I: insulin-like growth factor I, tested as morphogenic protein stimulatory factor (MPSF)
Stimulation of OP-1 osteogenic induction (figure title) (AP activity in FRC cells): stimulates OP-1 osteogenic induction
Potentiation of OP-1-stimulated AP activity by IGF-I (IGF-I 10 ng/ml, OP-1 100 ng/ml (FIG. 3)): 1.5–2 fold
Synergistic effect on AP level, timing of IGF-I addition (IGF-I 25 ng/ml added 6 h or later after OP-1 500 ng/ml, 48 h (FIG. 4)): reduced significantly
Maximum enhancement of OP-1-stimulated AP activity by IGF-I (IGF-I 25 ng/ml, OP-1 200 ng/ml (FIG. 3)): about 2.5 fold
Stimulation of AP activity by IGF-I in the absence of OP-1 (IGF-I 1–100 ng/ml, no OP-1 (FIG. 3)): did not stimulate AP activity
Enhancement of OP-1-stimulated AP activity by IGF-I [3]: 3–4 fold
Kind of stimulatory effect of IGF-I on OP-1-stimulated AP activity [3]: synergistic
Potentiation of OP-1-stimulated AP activity at higher IGF-I concentrations (IGF-I above 25 ng/ml (up to 100 ng/ml) with OP-1 (FIG. 3)): no longer potentiates
Synergistic effect on AP level, timing of IGF-I addition (OP-1 500 ng/ml and IGF-I 25 ng/ml added simultaneously, 48 h (FIG. 4)): maximum synergistic effect
Stimulation of AP activity by IGF-I alone (exogenous IGF-I alone up to 300 ng/ml, no OP-1 (FIG. 1)): did not stimulate AP activity
Synergistic effect on AP level, timing of IGF-I addition (pre-incubation with IGF-I 25 ng/ml for 24 h followed by OP-1 500 ng/ml): abolishes the synergistic effect

IGF-II: member of the IGF growth factor family
Stimulation of OP-1 osteogenic induction (figure title) (AP activity in FRC cells): does not stimulate OP-1-induced osteogenic induction
Effect of IGF-II on OP-1-stimulated increase in AP activity (IGF-II 10–300 ng/ml + OP-1 500 ng/ml (FIG. 11)): neither enhanced nor inhibited
Effect of IGF-II on the synergistic effect of IGF-I on OP-1 (IGF-II (925 ng/ml as printed) + IGF-I 25 ng/ml + OP-1 500 ng/ml): does not further potentiate

TGF-β
Stimulation of OP-1-induced osteogenic induction (figure title) (AP activity in FRC cells, OP-1 100, 200 or 500 ng/ml (FIG. 12)): does not stimulate OP-1-induced osteogenic induction
Synergistic effect of TGF-β with OP-1 on AP activity (TGF-β 0.05–3.0 ng/ml with OP-1 (FIG. 12)): did not exhibit any synergistic effect
Stimulation of AP activity by TGF-β alone (TGF-β alone, no OP-1 (FIG. 12)): did not stimulate AP activity

hGH: growth hormone (hGH), purchased from Sigma
MPSF function in concert with OP-1 (figure title) (AP activity in FRC cells): is a MPSF in concert with OP-1
Induction of AP activity over OP-1 alone (all hGH concentrations tested (10–1000 ng/ml) + 200 ng/ml OP-1, 48 hours (FIG. 6)): stimulated the induction of AP activity
Concentration dependence of hGH stimulation of AP activity (higher versus lower hGH concentrations + 200 ng/ml OP-1, 48 hours (FIG. 6)): more of a stimulatory effect

insulin: insulin, purchased from Sigma
Level of AP activity relative to cells treated with OP-1 alone [4]: about two-fold
Level of AP activity relative to control cells [4]: about four-fold
MPSF function in concert with OP-1 (figure title) (AP activity in FRC cells): is a MPSF in concert with OP-1
Stimulation of AP activity by insulin alone (insulin 0.05–5 nM alone, 48 hours (FIG. 8)): did not stimulate AP activity
